#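 Grown in 96-well plates, cells were treated for 48 hours with each compound at five concentrations. Insufficient inhibition: endpoint recorded as highest concentration tested. TGI: concentration producing complete growth inhibition.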
# Experiments:
# Test in all cases: NCI tumour cell line growth inhibition, 48 h
# 786-0 renal = system: 786-0 renal
# A498 renal = system: A498 renal
# A549 NSCLC = system: A549 NSCLC
# ACHN renal = system: ACHN renal
# CAKI-1 renal = system: CAKI-1 renal
# CCRF-CEM leukemia = system: CCRF-CEM leukemia
# COLO 205 colon = system: COLO 205 colon
# DLD-1 colon = system: DLD-1 colon
# DMS 273 small cell lung = system: DMS 273 small cell lung
# EKVX NSCLC = system: EKVX NSCLC
# HCC-2998 colon = system: HCC-2998 colon
# HCT-116 colon = system: HCT-116 colon
# HCT-15 colon = system: HCT-15 colon
# HL-60(TB) leukemia = system: HL-60(TB) leukemia
# HOP-62 NSCLC = system: HOP-62 NSCLC
# HT29 colon = system: HT29 colon
# IGROV1 ovarian = system: IGROV1 ovarian
# K-562 leukemia = system: K-562 leukemia
# KM12 colon = system: KM12 colon
# KM20L2 colon = system: KM20L2 colon
# LOX IMVI melanoma = system: LOX IMVI melanoma
# LXFL 529 NSCLC = system: LXFL 529 NSCLC
# M14 melanoma = system: M14 melanoma
# MOLT-4 leukemia = system: MOLT-4 leukemia
# NCI-H226 lung = system: NCI-H226 lung
# NCI-H23 lung = system: NCI-H23 lung
# NCI-H460 lung = system: NCI-H460 lung
# OVCAR-3 ovarian = system: OVCAR-3 ovarian
# OVCAR-4 ovarian = system: OVCAR-4 ovarian
# OVCAR-5 ovarian = system: OVCAR-5 ovarian
# OVCAR-8 ovarian = system: OVCAR-8 ovarian
# RPMI-8226 leukemia = system: RPMI-8226 leukemia
# RXF 393 renal = system: RXF 393 renal
# SF-268 CNS = system: SF-268 CNS
# SF-295 CNS = system: SF-295 CNS
# SF-539 CNS = system: SF-539 CNS
# SK-MEL-2 melanoma = system: SK-MEL-2 melanoma
# SK-MEL-28 melanoma = system: SK-MEL-28 melanoma
# SN12C renal = system: SN12C renal
# SNB-19 CNS = system: SNB-19 CNS
# SNB-78 CNS = system: SNB-78 CNS
# SR leukemia = system: SR leukemia
# SW-620 colon = system: SW-620 colon
# TK-10 renal = system: TK-10 renal
# U251 CNS = system: U251 CNS
# UACC-257 melanoma = system: UACC-257 melanoma
# UACC-62 melanoma = system: UACC-62 melanoma
# UO-31 renal = system: UO-31 renal
# BT-549 breast = system: BT-549 breast
# DU-145 prostate = system: DU-145 prostate
# HOP-92 NSCLC = system: HOP-92 NSCLC
# HS 578T breast = system: HS 578T breast
# MALME-3M melanoma = system: MALME-3M melanoma
# MCF7 breast = system: MCF7 breast
# MDA-MB-231 breast = system: MDA-MB-231 breast
# MDA-MB-435 = system: MDA-MB-435
# MDA-N = system: MDA-N
# NCI-H522 lung = system: NCI-H522 lung
# NCI/ADR-RES ovarian = system: NCI/ADR-RES ovarian
# PC-3 prostate = system: PC-3 prostate
# SK-MEL-5 melanoma = system: SK-MEL-5 melanoma
# SNB-75 CNS = system: SNB-75 CNS
# T-47D breast = system: T-47D breast
compound,measurement,setting,value
O=C(O)CCSC(=O)Nc1ccccc1,TGI,786-0 renal,> 100 µM
same,TGI,A498 renal,> 100 µM
same,TGI,A549 NSCLC,> 100 µM
same,TGI,ACHN renal,> 100 µM
same,TGI,CAKI-1 renal,> 100 µM
same,TGI,CCRF-CEM leukemia,> 100 µM
same,TGI,COLO 205 colon,> 100 µM
same,TGI,DLD-1 colon,> 100 µM
same,TGI,DMS 273 small cell lung,> 100 µM
same,TGI,EKVX NSCLC,> 100 µM
same,TGI,HCC-2998 colon,> 100 µM
same,TGI,HCT-116 colon,> 100 µM
same,TGI,HCT-15 colon,> 100 µM
same,TGI,HL-60(TB) leukemia,> 100 µM
same,TGI,HOP-62 NSCLC,> 100 µM
same,TGI,HT29 colon,> 100 µM
same,TGI,IGROV1 ovarian,> 100 µM
same,TGI,K-562 leukemia,> 100 µM
same,TGI,KM12 colon,> 100 µM
same,TGI,KM20L2 colon,> 100 µM
same,TGI,LOX IMVI melanoma,> 100 µM
same,TGI,LXFL 529 NSCLC,> 100 µM
same,TGI,M14 melanoma,> 100 µM
same,TGI,MOLT-4 leukemia,> 100 µM
same,TGI,NCI-H226 lung,> 100 µM
same,TGI,NCI-H23 lung,> 100 µM
same,TGI,NCI-H460 lung,> 100 µM
same,TGI,OVCAR-3 ovarian,> 100 µM
same,TGI,OVCAR-4 ovarian,> 100 µM
same,TGI,OVCAR-5 ovarian,> 100 µM
same,TGI,OVCAR-8 ovarian,> 100 µM
same,TGI,RPMI-8226 leukemia,> 100 µM
same,TGI,RXF 393 renal,> 100 µM
same,TGI,SF-268 CNS,> 100 µM
same,TGI,SF-295 CNS,> 100 µM
same,TGI,SF-539 CNS,> 100 µM
same,TGI,SK-MEL-2 melanoma,> 100 µM
same,TGI,SK-MEL-28 melanoma,> 100 µM
same,TGI,SN12C renal,> 100 µM
same,TGI,SNB-19 CNS,> 100 µM
same,TGI,SNB-78 CNS,> 100 µM
same,TGI,SR leukemia,> 100 µM
same,TGI,SW-620 colon,> 100 µM
same,TGI,TK-10 renal,> 100 µM
same,TGI,U251 CNS,> 100 µM
same,TGI,UACC-257 melanoma,> 100 µM
same,TGI,UACC-62 melanoma,> 100 µM
same,TGI,UO-31 renal,> 100 µM
COC(=O)c1cc2c(cc1C(=O)OC)[C@@]1(C)CCCC(C)(C)C1CC2 (some centres undefined),TGI,786-0 renal,36.7 µM
same,TGI,A498 renal,32.4 µM
same,TGI,A549 NSCLC,55.9 µM
same,TGI,ACHN renal,36.4 µM
same,TGI,BT-549 breast,85.9 µM
same,TGI,CCRF-CEM leukemia,42.1 µM
same,TGI,DU-145 prostate,33.7 µM
same,TGI,EKVX NSCLC,30.1 µM
same,TGI,HCC-2998 colon,34.4 µM
same,TGI,HCT-116 colon,45.8 µM
same,TGI,HCT-15 colon,35.3 µM
same,TGI,HL-60(TB) leukemia,31.9 µM
same,TGI,HOP-62 NSCLC,61.6 µM
same,TGI,HOP-92 NSCLC,26.2 µM
same,TGI,HS 578T breast,44.9 µM
same,TGI,HT29 colon,58.2 µM
same,TGI,IGROV1 ovarian,31.5 µM
same,TGI,K-562 leukemia,76.1 µM
same,TGI,KM12 colon,30.6 µM
same,TGI,LOX IMVI melanoma,36 µM
same,TGI,M14 melanoma,70.8 µM
same,TGI,MALME-3M melanoma,15.3 µM
same,TGI,MCF7 breast,32.7 µM
same,TGI,MDA-MB-231 breast,41.8 µM
same,TGI,MDA-MB-435,> 100 µM
same,TGI,MDA-N,78.8 µM
same,TGI,MOLT-4 leukemia,> 100 µM
same,TGI,NCI-H226 lung,33.8 µM
same,TGI,NCI-H23 lung,> 100 µM
same,TGI,NCI-H460 lung,43.8 µM
same,TGI,NCI-H522 lung,41.5 µM
same,TGI,NCI/ADR-RES ovarian,40.8 µM
same,TGI,OVCAR-3 ovarian,25 µM
same,TGI,OVCAR-4 ovarian,> 100 µM
same,TGI,OVCAR-5 ovarian,38.1 µM
same,TGI,OVCAR-8 ovarian,74 µM
same,TGI,PC-3 prostate,51.1 µM
same,TGI,RPMI-8226 leukemia,34.3 µM
same,TGI,RXF 393 renal,23.2 µM
same,TGI,SF-268 CNS,31.2 µM
same,TGI,SF-295 CNS,37 µM
same,TGI,SF-539 CNS,95.7 µM
same,TGI,SK-MEL-2 melanoma,46.7 µM
same,TGI,SK-MEL-28 melanoma,> 100 µM
same,TGI,SK-MEL-5 melanoma,35.4 µM
same,TGI,SN12C renal,35.2 µM
same,TGI,SNB-19 CNS,53.7 µM
same,TGI,SNB-75 CNS,82.1 µM
same,TGI,SR leukemia,57.7 µM
same,TGI,SW-620 colon,42.2 µM
same,TGI,T-47D breast,9.58 µM
same,TGI,TK-10 renal,39 µM
same,TGI,U251 CNS,40.4 µM
same,TGI,UACC-257 melanoma,62.8 µM
same,TGI,UACC-62 melanoma,32.5 µM
same,TGI,UO-31 renal,35 µM

# Source: PubChem BioAssay (NCI)
